Molecules are shown by their SMILES. Several values for one entry are separate records, joined by “and”; a condition that tells them apart may be missing. Equal values may be shown once.

`c1cc(N2CCNCC2)ccn1` [1-(4-pyridyl)piperazine] registered a melting point of 139 °C.
Under `CC(O)CCc1ccc(CCC(C)O)cc1` (stereo unspecified) [4,4'-benzene-1,4-diyldibutan-2-ol] stands 44 °C; under `NC(=O)c1c(F)c(F)c(F)c(F)c1F` [2,3,4,5,6-pentafluorobenzamide], 148 °C; under `NC(=O)c1ccccc1` [benzamide], 126 °C and 127 °C.
Turning to `CCC(=O)c1ccccc1` [propiophenone], the melting point worked out at 18 °C.
`C[C@]12CC[C@H]3[C@@H](CCC4=CC(=O)CC[C@@H]43)[C@@H]1CC[C@@H]2O` [Nandrolone] showed a melting point of 112 °C.
`Nc1cccc2c(N)cccc12` [1,5-Naphthalenediamine] had a melting point of 158 °C.
Under `ClCc1ccccc1` [benzyl chloride] stands -43 °C; under `O=C(O)c1cc(F)ccc1O` [5-fluorosalicylic acid], 180 °C; under `CC(=O)OC1=CC(c2ccccc2)c2ccccc21` (stereo unspecified) [1-phenyl-1H-inden-3-yl acetate], 56 °C.
Regarding `NC(=O)c1ccc([N+](=O)[O-])cc1` [p-nitrobenzamide], the melting point came to 201 °C.
Under `CS(=O)(=O)O` [methanesulfonic acid] stands 20 °C; under `COc1cc(/C=C/C(=O)CC(=O)/C=C/c2ccc(O)c(OC)c2)ccc1O` [curcumin], 173 °C; under `Cc1ccc(N)cc1` [p-toluidine], 44 °C.
`O=C(O)Cc1cccc(Cl)c1` [3-chlorophenylacetic acid] had a melting point of 79 °C.
Under `Cc1cccc(N)c1` [m-toluidine] stands -30 °C; under `CC(=O)Nc1ccccc1` [acetanilide], 115 °C; under `Oc1ccc(Br)cc1Br` [2,4-dibromophenol], 40 °C.
Under `CCOC(=O)c1cccc(C#N)c1` [ethyl_m-cyanobenzoate] stands 56 °C; under `N#Cc1ccc(C(c2ccc(C#N)cc2)n2cncn2)cc1` [Letrozole], 184 °C.
In turn, `Nc1ccc(N)cc1` [Benzene-1,4-diamine] came in with a melting point of 140 °C.
To `Oc1ccc(O)cc1` [hydroquinone] belongs 172 °C; to `Cl[C@H]1[C@H](Cl)[C@@H](Cl)[C@@H](Cl)[C@H](Cl)[C@H]1Cl` [g-bhc(lindane)], 112 °C; to `CCCC=O` [Butyraldehyde], -96 °C.
Under `CCOC(=O)/C(=N/Nc1ccc(Cl)cc1)C(=O)C(F)(F)F` stands 76 °C; under `CC(C)(C)OC(=O)N[C@H](CO)C(=O)O` [N-boc-D-serine], 90 °C; under `CC[C@H](C)C(=O)O[C@H]1C[C@@H](C)C=C2C=C[C@H](C)[C@H](CC[C@@H]3C[C@@H](O)CC(=O)O3)[C@H]21` [lovastatin], 175 °C.
`CSc1ccc(CC(=O)O)cc1` [4-(methylthio)phenylacetic acid] displayed a melting point of 100 °C.
Under `O=Cc1ccccc1Cl` [o-chlorobenzaldehyde] stands 11 °C; under `CC(C)(C)OC(=O)N1CCCCC1=O` [1-boc-2-piperidone], 36 °C.
To `CC(=O)Nc1ccc(F)cc1F` [2',4'-difluoroacetanilide] belongs 122 °C; to `OCc1cccc(O)c1` [3-hydroxybenzyl_alcohol], 72 °C.
The molecule `CC(=O)c1ccc(Cl)cc1Cl` [2,4-dichloroacetophenone] yielded a melting point of 34 °C.
To `Cc1c[nH]c(C)n1` [2,4-dimethylimidazole] belongs 86 °C.
Under `O=C(Cl)C(Cl)(Cl)Cl` [trichloroacetyl chloride] stands -146 °C; under `Cc1cc(O)c(C(C)C)cc1C1(c2cc(C(C)C)c(O)cc2C)OC(=O)c2ccccc21` [thymolphthalein], 252 °C.
To `CC(=O)Oc1ccccc1C(=O)O` [o-acetylsalicylic acid] belongs 138 °C; to `C[C@@H]1CCC[C@H](C)C1` [cis-1,3-dimethylcyclohexane], -76 °C; to `COc1ccc(OC)c(B(O)O)c1` [2,5-dimethoxybenzeneboronic acid], 93 °C.
`C#CCCCCCCCCCC` [1-dodecyne] gave a melting point of -19 °C.
As to `C#C[C@]1(O)CC[C@H]2[C@@H]3CCc4cc(O)ccc4[C@H]3CC[C@@]21C` [17alpha-ethynylestradiol], the melting point came to 144 °C.
In turn, `C#CC(C)(C)O` [2-methyl-3-butyn-2-ol] had a melting point of 3 °C.
Under `Fc1ccc(-c2ccc(F)cc2)cc1` [4,4'-difluorobiphenyl] stands 88 °C.
To `CCOC(=O)C1c2ccccc2Oc2ccccc21` [ethyl xanthene-9-carboxylate] belongs 67 °C; to `Cc1c(N(C)C)c(=O)n(-c2ccccc2)n1C` [4-(dimethylamino)antipyrine], 107 °C; to `O=S(=O)(Nc1ccc(Cl)cc1)c1ccccc1` [4-chloro-1-phenylsulfonamidobenzene], 122 °C.
To `O=C(O)c1cc(/N=N/c2ccc(S(=O)(=O)Nc3ccccn3)cc2)ccc1O` belongs 249 °C.
In the case of `CC(=O)OC1CCCC2=CC(=O)CCC21C` (stereo unspecified), the melting point stood at 90 °C.
Consider `OCC(F)(F)C(F)(F)CO` [2,2,3,3-tetrafluoro-1,4-butanediol], for which the melting point stood at 84 °C.
`CP(C)(C)=O` [trimethylphosphine oxide] had a melting point of 141 °C.
`COC(=O)c1ccc(OC)c(F)c1` [methyl 3-fluoro-4-methoxybenzoate] showed a melting point of 71 °C.
Molecule `CC(C)C1=C(O)C(=O)C2=C(C1=O)C(O)CC1C(C)(C)CCCC21C` (stereo unspecified) returned a melting point of 174 °C.
To `Cc1c(C)c(C)c(Br)c(C)c1C` [bromopentamethylbenzene] belongs 162 °C.
For `CCc1ccccc1N` [2-ethylaniline], the melting point is -44 °C.
To `O=C(CCCN1CCC(O)(c2ccc(Cl)cc2)CC1)c1ccc(F)cc1` [Haloperidol] belongs 148 °C.
`Cc1ccc(C(=O)O)cc1` [p-toluic_acid] registered a melting point of 182 °C.
`O=C(Nc1ccccn1)C(C(F)(F)F)C(F)(F)F` yielded a melting point of 109 °C.
In the case of `Cc1cccc(O)c1` [m-cresol], the melting point amounted to 11 °C.
Molecule `Clc1ccccc1Cl` [o-dichlorobenzene] displayed a melting point of -17 °C.
Under `CCCCCCSc1nc[nH]n1` [3-n-hexylthio-1,2,4-triazole] stands 67 °C.
Turning to `C1CCOC1` [tetrahydrofuran], the melting point is -108 °C.
Consider `CCOC(=O)c1ccc([N+](=O)[O-])o1` [ethyl 5-nitro-2-furoate], for which the melting point is 100 °C.
To `O=C1c2ccccc2C(=O)N1CCCCBr` [N-(4-bromobutyl)phthalimide] belongs 79 °C; to `NS(=O)(=O)c1cc2c(cc1Cl)NCNS2(=O)=O` [hydrochlorothiazide], 270 °C.
The molecule `CC=C(C)C(C)C` [3,4-dimethyl-cis-2-pentene] returned a melting point of -114 °C.
With `CC(C)(C)c1cc(CC(=O)O)cc(C(C)(C)C)c1O` [3,5-di-tert-butyl-4-hydroxyphenylacetic acid], the melting point was found to be 156 °C.
To `CC(C)CCC[C@@H](C)[C@H]1CC[C@H]2[C@@H]3CC=C4C[C@@H](O)CC[C@]4(C)[C@H]3CC[C@]12C` [(3beta)-Cholest-5-en-3-ol] belongs 149 °C; to `CCOC(=O)Cc1ccc(O)cc1` [ethyl 4-hydroxyphenylacetate], 37 °C.
The molecule `C=CCSc1ncccc1C(=O)O` [2-(allylthio)nicotinic acid] had a melting point of 147 °C.
To `C=C(C)Cn1c(N)cc(=O)n(C)c1=O` [amisometradine] belongs 175 °C; to `[O-][n+]1ccc2ccccc2c1` [isoquinoline n-oxide], 104 °C.
In the case of `NCc1cccc2c(Br)cccc12` [1-(5-bromonaphthalen-1-yl)methanamine], the melting point amounted to 139 °C.
Regarding `C1CCOC1` [Tetrahydrofuran], the melting point was -108 °C.
To `COC(=O)c1sccc1Cl` [methyl 3-chlorothiophene-2-carboxylate] belongs 38 °C; to `COc1ccc(S(=O)(=O)Cl)cc1` [4-methoxybenzenesulfonyl chloride], 40 °C.
Turning to `O=C(C=Cc1ccc([N+](=O)[O-])cc1)c1ccccc1` [2-Propen-1-one, 3- (4-nitrophenyl)-1-phenyl-], the melting point was 161 °C.
To `NC(=O)CS(=O)C(c1ccccc1)c1ccccc1` (stereo unspecified) [modafinil] belongs 164 °C.
Under `CC(N)=S` [Ethanethioamide] stands 115 °C.
Under `CC1=CC(=O)c2ccccc2C1=O` [Menadione] stands 102 °C.
`Cc1ccc(C)n1-c1ccc(F)cc1` [OSM-S-01] returned a melting point of 48.5 °C.
To `c1ccc2c(c1)Sc1ccccc1S2` [Thianthrene] belongs 159 °C; to `N#CCc1ccccc1` [phenylacetonitrile], -24 °C.
In turn, `CCCCc1ccccc1` [N-Butylbenzene] returned a melting point of -87.9 °C.
`CCC1(CC)C(=O)NCC(C)C1=O` (stereo unspecified) [methyprylon] showed a melting point of 75.5 °C.
As to `CCOC(=O)/C(=N/Nc1ccccc1[N+](=O)[O-])C(C)=O`, the melting point stood at 74 °C.
Under `NCCOB(c1ccccc1)c1ccccc1` [2-aminoethyl diphenylborinate] stands 189 °C.
Under `Cc1ccnc(NS(=O)(=O)c2ccc(N)cc2)n1` [sulfamerazine (polymorph 1)] stands 235 °C.
Take `CC(=O)OCC(CCn1cnc2cnc(N)nc21)COC(C)=O` [Famciclovir]: the melting point came out at 103 °C.
To `CCCCC(=O)CCCC` [5-nonanone] belongs -50 °C; to `C/C=C\C#N` [Z-crotononitrile], -72.6 °C.
`Oc1ccc(Cl)cc1Cc1cc(Cl)ccc1O` [2,2'-methylenebis(4-chlorophenol)] displayed a melting point of 174 °C.

One may read the melting point as the temperature, or range, at which the solid turns liquid.

Source of the values: the Bradley open melting point set (2014).
